{"source": "patent US20220057383A1", "about": "“USE OF BIOMARKERS TO EVALUATE THE EFFICACY OF A COMPOSITION IN REDUCING THE EFFECTS OF CANCER THERAPEUTICS ON SKIN” (Johnson & Johnson Consumer Inc., priority 2019, published 2022)", "key": {"[1]": {"details": "human, in vivo; cited from earlier work"}, "[2]": {"system": "Reconstructed Human Epidermis (RHE) tissues"}, "RHE keratinocytes": {"system": "RHE keratinocytes", "assay": "Transcriptomic analysis (gene expression profiling) of RHE keratinocytes treated with afatinib", "type": "cell-based, human", "details": "100 nM afatinib; for number of genes down-regulated compared to control / number of genes up-regulated compared to control: cut off 50%"}, "[3]": {"details": "100 nM afatinib vs control, cut off 1.2-fold, overall"}}, "note": "Like-named read-outs stand apart in the source and are kept apart here.", "data": [{"substance": "Afatinib", "values": [{"measurement": "appearance of granulomas versus other EGFRi", "setting": "[1]", "value": "more frequent appearance of granulomas"}, {"measurement": "FOXO3 phosphorylation", "setting": "[2]; 100 nM afatinib", "value": "decreased"}, {"measurement": "cellular senescence pathway, enrichment based on change of protein phosphorylation status", "setting": "[2]; 100 nM afatinib", "value": "significant enrichment"}, {"measurement": "number of phosphoproteins with changed phosphorylation status", "setting": "[2]; 100 nM afatinib vs control, cut off 1.2-fold change (more than 20%), all time points", "value": 62}, {"measurement": "number of proteins with a significant decrease of phosphorylation status", "setting": "[2]; [3]", "value": 18}, {"measurement": "number of proteins with a significant increase of phosphorylation status", "setting": "[2]; [3]", "value": 44}, {"measurement": "number of proteins showing decreased phosphorylation compared to control", "setting": "[2]; 100 nM afatinib, 20 min", "value": 3}, {"measurement": "number of proteins showing increased phosphorylation compared to control", "setting": "[2]; 100 nM afatinib, 20 min", "value": 6}, {"measurement": "PI3K-AKT pathway, Set Enrichment Analysis of phosphorylation status", "setting": "[2]; 100 nM afatinib, 24 h", "value": "significant enrichment"}, {"measurement": "number of proteins showing decreased phosphorylation compared to control", "setting": "[2]; 100 nM afatinib, 24 h", "value": 23}, {"measurement": "number of proteins showing increased phosphorylation compared to control", "setting": "[2]; 100 nM afatinib, 24 h", "value": 18}, {"measurement": "phosphorylation of MEK1 (Phospho-Ser217)", "setting": "[2]; 100 nM afatinib, 24 h", "value": "not impacted"}, {"measurement": "phosphorylation of MEK1 (Phospho-Ser221)", "setting": "[2]; 100 nM afatinib, 24 h", "value": "not impacted"}, {"measurement": "phosphorylation of Raf1 (Phospho-Ser338)", "setting": "[2]; 100 nM afatinib, 24 h", "value": "decreased"}, {"measurement": "phosphorylation of Raf1 (Phospho-Tyr341)", "setting": "[2]; 100 nM afatinib, 24 h", "value": "not impacted"}, {"measurement": "phosphorylation of eIF4E (Phospho-Ser209)", "setting": "[2]; 100 nM afatinib, 24 h", "value": "decreased"}, {"measurement": "number of proteins showing decreased phosphorylation compared to control", "setting": "[2]; 100 nM afatinib, 72 h", "value": 6}, {"measurement": "number of proteins showing increased phosphorylation compared to control", "setting": "[2]; 100 nM afatinib, 72 h", "value": 6}, {"measurement": "expression of genes related to inflammation (Th1 response)", "setting": "RHE keratinocytes", "value": "did not show any increase"}, {"measurement": "genes involved in innate immunity (S100 family, SPRR2B, DEFB1)", "setting": "RHE keratinocytes", "value": "negatively regulated"}, {"measurement": "number of genes down-regulated compared to control", "setting": "RHE keratinocytes; 6 h", "value": 170}, {"measurement": "number of genes up-regulated compared to control", "setting": "RHE keratinocytes; 6 h", "value": 201}, {"measurement": "expression of KRT2, KRT9, KRT13, KRT15 and Late Cornified Envelop genes (LCE2A, LCE1B, LCE2B, LCE1C, LCE2D)", "setting": "RHE keratinocytes; 24 h", "value": "increase"}, {"measurement": "expression of metallothionein panel (MT1E, MT1L, MT1H L1, MT1X, MT1B, MT1A)", "setting": "RHE keratinocytes; 24 h", "value": "decreased"}, {"measurement": "number of genes down-regulated compared to control", "setting": "RHE keratinocytes; 24 h", "value": 335}, {"measurement": "number of genes up-regulated compared to control", "setting": "RHE keratinocytes; 24 h", "value": 281}, {"measurement": "expression of CYP (CYP4B1, CYP3A7, CYP3A5, CYP2J2, CYP4A11, CYP1A1, CYP4F22)", "setting": "RHE keratinocytes; 24 h and 72 h", "value": "decreased"}, {"measurement": "expression of CYP (Inc-CYP24A1-1, CYP27A1, CYP4F12)", "setting": "RHE keratinocytes; 24 h and 72 h", "value": "increased"}, {"measurement": "expression of SIRT4", "setting": "RHE keratinocytes; 72 h", "value": "increased"}, {"measurement": "expression of antioxidant enzymes PRDX2 and PRDX3", "setting": "RHE keratinocytes; 72 h", "value": "decreased"}, {"measurement": "expression of metallothionein panel (MT1E, MT1L, MT1H L1, MT1X, MT1B, MT1A)", "setting": "RHE keratinocytes; 72 h", "value": "increased"}, {"measurement": "genes related to IL4 and IL13 signaling (Th2 response)", "setting": "RHE keratinocytes; cluster C2", "value": "over representation"}, {"measurement": "genes related to the PI3K/AKT pathway", "setting": "RHE keratinocytes; cluster C6", "value": "upregulation"}, {"measurement": "number of dysregulated genes", "setting": "RHE keratinocytes; cut-off 50% fold-change, different time points", "value": "2,182"}, {"measurement": "inflammasome response via TLR, NLR and IL1 families", "setting": "RHE keratinocytes; protein phosphorylation assay and gene expression array", "value": "decreased"}]}]}
